Laboratory results taken from publication PMC7179112, “Antimicrobial, Antioxidant, and Anticancer Activities of Some Novel Isoxazole Ring Containing Chalcone and Dihydropyrazole Derivatives” (Molecules, 2020).
Values after ≈ are worked out from the molar mass of the structure shown.

Experiments:
[1] = system: Aspergillus niger; assay: Antifungal activity, serial tube dilution method; type: cell-based
Method: (§1) The target chalcones (17–31) and pyrazolines (32–46) were tested for their antimicrobial activities by serial tube dilution method against two types of bacterial and fungal strains (Table 1 and Table 2). The bacterial strains used for the testing, including Gram-positive Staphylococcus aureus and Gram-negative Pseudomonas aeruginosa, whereas the fungal strains employed were Aspergillus niger and Candida tropicalis.
(§2) The antibacterial and antifungal activity of the novel chalcones (17 to 31) and dihydropyrazoles (32 to 46) against the selected bacterial and fungal strains was assessed by following the procedure described in our previous paper.

[2] = system: Candida tropicalis; assay: Antifungal activity, serial tube dilution method; type: cell-based; details: read-out: MIC C tropicalis
Method: as §1, §2

[3] = system: Aspergillus niger and Candida tropicalis; assay: Antifungal activity (strain not named); type: cell-based; details: text/figure value, strain not named
Method: as §1, §2

[4] = system: Pseudomonas aeruginosa; assay: Antibacterial activity, serial tube dilution method; type: cell-based; details: Pseudomonas aeruginosa; Gram-negative; serial tube dilution; read-out: MIC P aeruginosa
Method: as §1, §2

[5] = system: Staphylococcus aureus; assay: as above; type: cell-based; details: Staphylococcus aureus; Gram-positive; serial tube dilution; read-out: MIC S aureus
Method: as §1, §2

[6] = system: prostate cancer cell line, DU-145; assay: MTT assay anticancer activity; type: cell-based; details: for IC50: Homo sapiens, MTT assay, mean ± SD (n = 3); for Anticancer potency MIC: given as MIC in text/Figure 3
Method: All the 30 compounds were evaluated for their anticancer potency against the prostate cancer cell line, DU-145, employing colorimetric tetrazolium dye (MTT) assay. […] Among the disubstituted series 20–25, substitution at position 3 and 4 (compound 24) produced the best activity but was lower than the standard. […] Similar phenomena can be seen among the dihydropyrazole series.
The in vitro anticancer activity of chalcones (17 to 31) and dihydropyrazoles (32 to 46) was evaluated by the Mosmann’s MTT assay as described previously.

[7] = system: Human Normal Cells (L02); assay: MTT assay toxicity on normal cells; type: cell-based
[8] = DPPH free radical scavenging assay; details: antioxidant activity; average of three independent experiments
Method: The antioxidant activity of all 30 compounds was assessed using 1,1-diphenyl-2-picrylhydrazine (DPPH) free radical scavenging assay and the results are the average of three independent experiments (Table 3). Gallic acid was employed as a positive control. […] In the disubstituted series (20–25), compound 25 with substitutions at position 3 and 5 on the phenyl ring gave the highest activity of 9 µg/mL.
The purpose of this study was to evaluate the antioxidant activity of chalcones and pyrazolines using the DPPH free radical assay. The percentage of antioxidant activity (AA%) of all the compounds was assessed by the DPPH free radical assay. The measurement of the DPPH radical scavenging activity was performed according to methodology described by Brand-Williams et al. The samples were reacted with the stable DPPH radical in an ethanol solution. A 0.1 mM solution of DPPH was prepared by dissolving DPPH in methanol. Gallic acid was taken as a reference standard and different concentrations of test samples (5–100 µg/mL) and standard (1.0, 2.5, and 5.0 µg/mL) were prepared using methanol. One milliliter of 0.1 mM DPPH solution was added to 3 mL of all concentrations of test samples and standard separately. These mixtures were kept in dark for about 30 min and the absorbance was measured at 517 nm. The capability to scavenge the DPPH radical was calculated using the formula:(1) DPPH scavanged (%)= Absorbance of control−Absorbance of sample/Absorbance of control∗100 when DPPH reacted with an antioxidant compound and was reduced, the change in color (from deep violet to light yellow) was read [Absorbance (Abs)] at 517 nm after […] of reaction using a UV-VIS spectrophotometer.

[9] = system: Staphylococcus aureus and Pseudomonas aeruginosa; assay: Antibacterial activity (strain not named); type: cell-based; details: for MIC: text/figure value, strain not named
Method: as §1, §2

Compound	MIC [1]	MIC [2]	MIC [3]	MIC [4]	MIC [5]	IC50 [6]	DPPH assay IC50 [8]	Anticancer potency MIC [6]	MIC [9]	IC50 [7]	fold improvement of antibacterial activity vs. 41 ([9]; 45 (MIC 8) vs. 41 (MIC 64))
COc1ccccc1C1CC(c2ccno2)=NN1C(N)=O (stereo not drawn) [Compound 34]	8 µg/mL (≈ 27.9 µM)	8 µg/mL (≈ 27.9 µM)	8 µg/mL (≈ 27.9 µM)	16 µg/mL (≈ 55.9 µM)	16 µg/mL (≈ 55.9 µM)	32 ± 2 µg/mL (≈ 112 µM)	38 ± 2 µg/mL			> 40 µg/mL	
COc1cccc(C2CC(c3ccno3)=NN2C(N)=O)c1OC (stereo not drawn) [Compound 35]	16 µg/mL (≈ 50.6 µM)	16 µg/mL (≈ 50.6 µM)		64 µg/mL (≈ 202 µM)	64 µg/mL (≈ 202 µM)	16 ± 2 µg/mL (≈ 50.6 µM)	32 ± 1 µg/mL			> 40 µg/mL	
COc1cc(OC)cc(C2CC(c3ccno3)=NN2C(N)=O)c1 (stereo not drawn) [Compound 40]	64 µg/mL (≈ 202 µM)	64 µg/mL (≈ 202 µM)		256 µg/mL (≈ 809 µM)	256 µg/mL (≈ 809 µM)	8 ± 2 µg/mL (≈ 25.3 µM)	12 ± 1 µg/mL			> 40 µg/mL	
COc1ccc(C2CC(c3ccno3)=NN2C(N)=O)c(OC)c1OC (stereo not drawn) [Compound 41]	64 µg/mL (≈ 185 µM)	64 µg/mL (≈ 185 µM)		128 µg/mL (≈ 370 µM)	64 µg/mL (≈ 185 µM)	9 ± 1 µg/mL (≈ 26 µM)	8 ± 1 µg/mL		64 µg/mL (≈ 185 µM)	> 40 µg/mL	
COc1cc(OC)c(C2CC(c3ccno3)=NN2C(N)=O)cc1OC (stereo not drawn) [Compound 42]	16 µg/mL (≈ 46.2 µM)	16 µg/mL (≈ 46.2 µM)		16 µg/mL (≈ 46.2 µM)	32 µg/mL (≈ 92.4 µM)	18 ± 2 µg/mL (≈ 52 µM)	10 ± 2 µg/mL			> 40 µg/mL	
COc1cc(C2CC(c3ccno3)=NN2C(N)=O)cc(OC)c1OC (stereo not drawn) [Compound 44]	16 µg/mL (≈ 46.2 µM)	16 µg/mL (≈ 46.2 µM)		256 µg/mL (≈ 739 µM)	64 µg/mL (≈ 185 µM)	5 ± 2 µg/mL (≈ 14.4 µM)	12 ± 2 µg/mL			> 40 µg/mL	
COc1ccc(C2CC(c3ccno3)=NN2C(N)=O)c(F)c1OC (stereo not drawn) [Compound 45]	0.5 µg/mL (≈ 1.5 µM)	1 µg/mL (≈ 2.99 µM)		8 µg/mL (≈ 23.9 µM)	8 µg/mL (≈ 23.9 µM)	2 ± 1 µg/mL (≈ 5.98 µM)	55 ± 2 µg/mL	2 µg/mL	8 µg/mL (≈ 23.9 µM)	> 40 µg/mL	8 fold
OC(Cn1cncn1)(Cn1cncn1)c1ccc(F)cc1F [Fluconazole, reference compound]	1 µg/mL (≈ 3.27 µM)	1 µg/mL (≈ 3.27 µM)	1 µg/mL (≈ 3.27 µM)								
O=C(O)c1cc(O)c(O)c(O)c1 [Gallic acid, reference compound]							Gallic acid 5 ± 1 µg/mL				

The next lines start with results.

MIC [1]	MIC [2]	MIC [3]	MIC [4]	MIC [5]	IC50 [6]	DPPH assay IC50 [8]	Anticancer potency MIC [6]	MIC [9]	Compound	IC50 [7]	fold improvement of antibacterial activity vs. 41 ([9]; 45 (MIC 8) vs. 41 (MIC 64))
4 µg/mL (≈ 12.6 µM)	8 µg/mL (≈ 25.3 µM)		8 µg/mL (≈ 25.3 µM)	8 µg/mL (≈ 25.3 µM)	26 ± 2 µg/mL (≈ 82.2 µM)	25 ± 2 µg/mL			COc1ccc(C2CC(c3ccno3)=NN2C(N)=O)c(OC)c1 (stereo not drawn) [Compound 36]	> 40 µg/mL	
32 µg/mL (≈ 101 µM)	32 µg/mL (≈ 101 µM)		32 µg/mL (≈ 101 µM)	64 µg/mL (≈ 202 µM)	31 ± 2 µg/mL (≈ 98 µM)	39 ± 2 µg/mL			COc1ccc(OC)c(C2CC(c3ccno3)=NN2C(N)=O)c1 (stereo not drawn) [Compound 37]	> 40 µg/mL	
2 µg/mL (≈ 6.32 µM)	2 µg/mL (≈ 6.32 µM)	2 µg/mL (≈ 6.32 µM)	16 µg/mL (≈ 50.6 µM)	32 µg/mL (≈ 101 µM)	20 ± 2 µg/mL (≈ 63.2 µM)	28 ± 1 µg/mL			COc1cccc(OC)c1C1CC(c2ccno2)=NN1C(N)=O (stereo not drawn) [Compound 38]	> 40 µg/mL	
32 µg/mL (≈ 101 µM)	32 µg/mL (≈ 101 µM)		64 µg/mL (≈ 202 µM)	128 µg/mL (≈ 405 µM)	4 ± 2 µg/mL (≈ 12.6 µM)	49 ± 1 µg/mL	4 µg/mL		COc1ccc(C2CC(c3ccno3)=NN2C(N)=O)cc1OC (stereo not drawn) [Compound 39]	> 40 µg/mL	
					5 µg/mL (≈ 6.19 µM)		5 µg/mL		CC(=O)O[C@@]12CO[C@@H]1C[C@H](O)[C@@]1(C)C(=O)[C@H](O)C3=C(C)[C@@H](OC(=O)[C@H](O)[C@@H](NC(=O)OC(C)(C)C)c4ccccc4)C[C@@](O)([C@@H](OC(=O)c4ccccc4)[C@H]21)C3(C)C [Docetaxel, reference compound]		
